Measured values: patent US10925855B2, “Compositions comprising water dispersible nanoparticles of a retinoid compound” (GALDERMA RESEARCH & DEVELOPMENT, priority 2015, dated 2021)
≈ marks a conversion by molar mass, not a printed value.

How the values were obtained:
[1] = Solvent screening (solubility of compound A); assay type: physicochemical; conditions: for solubility: thermodynamic from solid, Sonication
Procedure: 10-20 mg of 3″-tert-butyl-4′-(2-hydroxyethoxy)-4″-pyrrolidin-1-yl[1,1′;3′,1″]-terphenyl-4-carboxylic acid (hereinafter “compound A”) was placed into a 30 ml vial. 200 μl of the selected solvent was added and the vial was stirred by magnetic stirring. • If the compound A was not dissolved, the vial was placed into ultrasonic bath with mild heating. • If the compound A was still not dissolved, further 200 μl of the solvent was added to the vial and the magnetic stirring and ultrasonication were repeated.
The whole procedure (addition of the solvent, stirring, ultrasonication, heating) was repeated stepwise until every compound A particles was dissolved and a clear, translucent liquid was obtained.

[2] = Redispersibility in water; assay type: physicochemical; conditions: addition of water at room temperature

solubility profile (in words) ([1]; acetone): slightly soluble | solubility profile (in words) ([1]; acetonitrile): very slightly soluble | solubility profile (in words) ([1]; ethanol): slightly soluble | solubility profile (in words) ([1]; isopropanol): slightly soluble | solubility profile (in words) ([1]; methanol): slightly soluble | solubility ([1]; organic solvent or mixture, Acetone, RT): 3000 µg/mL (≈ 6.53 mM) | solubility ([1]; organic solvent or mixture, Acetonitrile, RT): 400 µg/mL (≈ 0.87 mM) | solubility ([1]; organic solvent or mixture, Ethanol, RT): 4900 µg/mL (≈ 10.7 mM) | solubility ([1]; organic solvent or mixture, Isopropanol, RT): 3000 µg/mL (≈ 6.53 mM) | solubility ([1]; organic solvent or mixture, Methanol, RT): 1700 µg/mL (≈ 3.7 mM) | solubility ([1]; organic solvent or mixture, Pyridine, RT): 34500 µg/mL (≈ 75.1 mM) | solubility ([1]; organic solvent or mixture, Tetrahydrofuran, RT): 30500 µg/mL (≈ 66.4 mM) | solubility profile (in words) ([1]; pyridine): soluble | solubility profile (in words) ([1]; tetrahydrofuran): soluble | solubility ([1]; Water, T = 45° C.): < 50 µg/mL | solubility profile (in words) ([1]; water): practically insoluble | Redispersibility [2]: not wetted by water
SMILES: CC(C)(C)c1cc(-c2cc(-c3ccc(C(=O)O)cc3)ccc2OCCO)ccc1N1CCCC1 [Compound A, 3″-tert-butyl-4′-(2-hydroxyethoxy)-4″-pyrrolidin-1-yl[1,1′;3′,1″]-terphenyl-4-carboxylic acid]
